# In US9650400B2, “Voriconazole sodium phosphate hydrates and polymorphs thereof” (SHAANXI SYNTHETIC PHARMACEUTICAL CO., LTD., priority 2013, dated 2017):
# Where two headings read alike, the source gives them in different places.
# Columns and labels:
# [1] = Pharmacokinetic experiments in rabbits (intravenous, equimolar); type: in vivo; details: rabbit
# Procedure: Two rabbits of same body weight were intravenously administered equimolar voriconazole sodium phosphate and voriconazole, respectively, and an equal volume of blood was drawn from the rabbits at different time intervals, and a metabolism status in body was determined.
# [2] = system: Aspergillus fumigatus; assay: Diffused aspergillosis in guinea pigs; type: in vivo
# Procedure: (§1) In all experiments, particular pathogen-free guinea pigs (body weight of 400-500 g) were used. A conduit was placed in the left jugular vein of the […] infected with Aspergillus fumigatus (4,000 CFU/g body weight) or Candida albicans (4,000 CFU/g body weight) via the lateral veins of penis of the animal or via the implanted conduit. One hour after infection, the animals were subject to an intravenous therapy (5 mg/kg/day). The mean survival time (MST) and the percent survival (% sur) were recorded for each group experimental animals (the number of each group of experimental animals is listed in column “N”) within respective number of days. The amounts of […] in deep tissues (such as liver, spleen, kidney, lung, or brain) were investigated in animals which died during the experiment and in animals which survived the experiment but were later sacrificed in respective groups. “% neg” in Table 1 represents the percent of deep tissues that were culture-negative after treatment.
# [3] = Hydroscopicity comparison (moisture absorption, 25° C. and 80% humidity, 24 hours); type: physicochemical
# [4] = type: physicochemical
# Procedure: Sample injection was carried out by using a sample prepared by allowing the sample in Example 17 to absorb moisture, and the results are shown in Table 5.
# [5] = system: Candida albicans; assay: Diffused candidiasis in guinea pigs; type: in vivo; details: intravenous 5 mg/kg/day
# Procedure: as §1
# [6] = Aspergillus fumigatus, intravenous 5 mg/kg/day
molecule,measurement,setting,value
voriconazole sodium phosphate,metabolism in body (in words),[1]; intravenous,can be metabolized into voriconazole in body
same,"Prodrug in blood, peak area","[1]; intravenous, 30 min",235.92 peak area
same,"parent nucleus (voriconazole) in blood, peak area","[1]; intravenous, 30 min",0.324 peak area
same,"Prodrug in blood, peak area","[1]; intravenous, 60 min",143.51 peak area
same,"parent nucleus (voriconazole) in blood, peak area","[1]; intravenous, 60 min",86.42 peak area
same,"Prodrug in blood, peak area","[1]; intravenous, 120 min",98.59 peak area
same,"parent nucleus (voriconazole) in blood, peak area","[1]; intravenous, 120 min",158.32 peak area
same,"Prodrug in blood, peak area","[1]; intravenous, 150 min",2.045 peak area
same,"Prodrug in blood, peak area","[1]; intravenous, 200 min",0 peak area
same,"parent nucleus (voriconazole) in blood, peak area","[1]; intravenous, 200 min",130.38 peak area
same,"Prodrug in blood, peak area","[1]; intravenous, 250 min",0 peak area
same,"parent nucleus (voriconazole) in blood, peak area","[1]; intravenous, 250 min",69.23 peak area
same,potency against fungal infection (in words),"[2]; Aspergillus fumigatus or Candida albicans infection, conclusion from Table 7",very potent against fungal infection
Voriconazole phosphate anhydrate [reference compound],"Sample weight, 0 hour",[3],0.3938 g
same,"Sample weight, 24 hours",[3]; 24 hours,0.4627 g
same,hydroscopicity (in words),[3]; 24 hours,significant hydroscopicity
same,stability under highly humid conditions (in words),[4],extremely unstable
same,"Individual impurity, by weight",[4]; 0 hour,Individual impurity 0.07%
same,"Total impurity, by weight",[4]; 0 hour,Total impurity 0.10%
C[C@@H](c1ncncc1F)[C@](O)(Cn1cncn1)c1ccc(F)cc1F [voriconazole],"parent nucleus (voriconazole) in blood, peak area","[1]; in vivo, iv, 30 min",378.34 peak area
same,"parent nucleus (voriconazole) in blood, peak area","[1]; in vivo, iv, 60 min",321.69 peak area
same,"parent nucleus (voriconazole) in blood, peak area","[1]; in vivo, iv, 120 min",150.45 peak area
same,"parent nucleus (voriconazole) in blood, peak area","[1]; in vivo, iv, 150 min",78.35 peak area
same,"parent nucleus (voriconazole) in blood, peak area","[1]; in vivo, iv, 200 min",29.71 peak area
same,"parent nucleus (voriconazole) in blood, peak area","[1]; in vivo, iv, 250 min",0.234 peak area
voriconazole sodium phosphate hydrate,"Sample weight, 0 hour",[3],0.3318 g
same,"Sample weight, 24 hours",[3]; 24 hours,0.3441 g
same,"Weight increase by moisture absorption, by weight",[3]; 24 hours,3.6%
same,hydroscopicity (in words),[3]; 24 hours,mild hydroscopicity
same,"Individual impurity, by weight",[4]; 0 hour,Individual impurity 0.06%
same,"Total impurity, by weight",[4]; 0 hour,Total impurity 0.09%
same,"Individual impurity, by weight",[4]; 24 hour moisture absorption,Individual impurity 0.08%
same,"Total impurity, by weight",[4]; 24 hour moisture absorption,Total impurity 0.13%
same,change in impurity after absorbing moisture (in words),[4]; 24 hours,minor change in impurity
same,MST (mean survival time),"[2]; Aspergillus fumigatus 4,000 CFU/g body weight, intravenous 5 mg/kg/day",6.2 days
same,% neg (percent of deep tissues culture-negative after treatment),[2]; [6],70%
same,% sur (percent survival),[2]; [6],66.4%
same,g (liver): CFU/g in culture-positive liver,[2]; [6],3.5 mean log 10 CFU/g
same,MST (mean survival time),"[5]; Candida albicans 4,000 CFU/g body weight",9.5 days
same,% neg (percent of deep tissues culture-negative after treatment),[5]; Candida albicans,69%
same,% sur (percent survival),[5]; Candida albicans,76.9%
same,g (liver): CFU/g in culture-positive liver,[5]; Candida albicans,0 mean log 10 CFU/g
